Series [1] in a line: Pharmacokinetic sampling: ratio of D2-AA to AA in red blood cells of treated patients. The series is classed as in vivo, human. How it is done: (§1) Three patients diagnosed with likely PSP underwent baseline assessment using the 28-item Progressive Supranuclear Palsy Rating Scale (PSPRS) and the Unified Parkinson's Disease Rating Scale (UPDRS). They were then treated with D2-Lin (2.88 g BID; 5.76 g total daily dose) and observed for disease progression. The second patient had their dose increased (2.88 g TID; 8.64 g total daily dose) after the first year of treatment. During the treatment period, scores in the 2 rating scales were determined every 3 months. Pharmacokinetic (PK) sampling was performed at month 3. These analytes included plasma and RBC membrane levels of (D2-LA) and its centrally active metabolite D2-AA.
At 3 months, the following data was collected:
At 12 months, the following data was collected:
The above results evidence that a percent ratio of 11,11-D2-AA to AA in red blood cells of about 3% is necessary to achieve therapeutic results.

The subject of series [2] is control MSCs. The series can be described thus: Rate of lipid peroxidation (BODIPY C11) in control MSCs. The series is classed as cell-based, human. The following applies: 72-hour incubation. The procedure: (§2) The effect of D2-Lin on mesenchymal stem cells derived from patients with SROS was assessed using non-deuterated Lin as a control. MSC preparations from bone marrow aspirates from control subjects were compared to 3 subjects with SROS, following protocols described in Hill S., et al., Free Radic. Biol. Med. (2012) 53:893-906; and Cotticelli M G., et al., Redox Biol. (2013) 1:398-404.
(§3) LPO has been implicated as an early and pivotal factor in SROS. Specifically, increased levels of n-6 PUFA oxidation products such as 4-HNE were reported, as a direct consequence of the LPO chain reaction. Accordingly, the difference in basal MMP and ROS generation between control and the 3 cell lines of SROS MSCs was associated with increased rates of LPO, as detected by the LPO-specific probe, BODIPY C11.
Lipid peroxidation was measured using confocal microscopy (Zeiss 710 LSM with an integrated META detection system). The rate of lipid peroxidation was measured using C11-BODIPY 581/591 ([…]; Molecular probes) which was excited by the 488 and 543 nm laser line and fluorescence measured using a band-pass filter from 505 to 550 nm and 560 nm long-pass filter (40× oil-objective). Illumination intensity was kept to a minimum (0.1-0.2% of laser output) to prevent phototoxicity and the pinhole was set to give an optical slice of […]. […]

In a further series the test system is SROS-MSC. The series can be described thus: Mitochondrial DNA level (PicoGreen fluorescence in non-nuclear area) in SROS MSCs. The series is classed as cell-based, human. Conditions: after 72 hours incubation, from 67.5% before, relative to control MSC 100%. The procedure:
as §2
(§4) The number of mitochondria within the cells is regulated by the balance between mitochondrial biogenesis and mitophagy. Accordingly, for the normal maintenance of the mitochondrial balance, SROS-MSCs should activate mitochondrial biogenesis. […] Various factors, for example excessive fusion can result in a lower number of mitochondria in the cell, leading to impaired respiration, a lower production of ATP, and increased oxidative damage. Arun et al., Curr. Neuropharmacol. (2016) 14:143-154. However, after 72 hours incubation of the cells with D2-PUFAs mitochondrial DNA increased for both control and SROS MSCs.

The subject of series [3] is patients diagnosed with likely PSP. Kind of series: Unified Parkinson's Disease Rating Scale (UPDRS) in treated patients. The series is classed as in vivo, human. The following applies: three PSP patients; 2.88 g BID; after 3 months of therapy; expected increase 0.95 points/month; +/-0.41 SEM. The procedure:
as §1
(§5) The three patients were 2 males ([…]) and one person each of whom had pre-treatment symptom duration of 6 years and 3 years for the two males and 2 years for the person. The baseline PSPRS for the two males was 17 and 12 respectively and 13 for the person. The baseline UPDRS for the two males was 44 and 36 respectively and 21 for the person.
(§6) After 3 months of therapy, the slope of the PSPRS changed from the historical decline of 0.91 points/month to a mean of decline of 0.16 points/month (+/−0.23 SEM). The UPDRS slope changed from an expected increase of 0.95 points/month to an average increase in score of 0.28 points/month (+/−0.41 SEM).

Another series concerns SROS-MSCs. The series can be described thus: Mitochondrial membrane potential (fluorescent indicator, TMRM) in SROS MSCs. The series is classed as cell-based, human. The following applies: SROS cells from SROS patients; incubation for 72 hours. The procedure: as §2
(§7) MMP is an important indicator of mitochondrial health and is typically kept at […] values (100-140 mV). A long-lasting drop or rise of normal MMP levels may induce loss of cell viability and various pathologies. ROS and LPO levels are directly linked to MMP, and increase exponentially at MMP>140 mV. […]
(§8) MSC preparations from BM were obtained from control subjects and from the PSP subjects following previously described protocols. […] MSC identity was previously assessed. […]
(§9) For assessments of glutathione levels, the PSP-MSCs cultures were incubated with 50 μM monochlorobimane (MCB) (Molecular Probes, Invitrogen) for 40 minutes in HEPES buffered salt solution prior to imaging. Cells were then washed with HEPES buffered salt solution and images of the fluorescence of the MCB-GSH were acquired using a Zeiss 710 CLSM with excitation at 405 nm and emission at 435-485 nm. […] The fluorescence measurement was obtained by excitation with 561 nm laser and emission detected above 580 nm. […]

The test system of series [4] is control MSCs. Kind of series: Mitochondrial membrane potential (fluorescent indicator, TMRM) in control MSCs. The series is classed as cell-based, human. The following applies: incubation for 72 hours. How it is done: as §2, §7, §8, §9
Series [5] concerns SROS MSCs. Kind of series: Rate of lipid peroxidation (BODIPY C11) in SROS/PSP MSCs. The series is classed as cell-based, human. Conditions: 72-hour incubation; for rate of lipid peroxidation (LPO), in words: SROS/PSP MSCs, BODIPY C11. The procedure:
as §2, §3
(§10) MSC preparations from BM were obtained from control subjects and from the PSP subjects following previously described protocols. In short, MSCs were isolated from BM aspirates seeding 50,000 mononucleated cells/cm2 in αMEM (Thermo Fisher Scientific, Waltham, MA, USA) supplemented with 10% fetal bovine serum (FBS; Thermo Fisher Scientific), in T75 flasks. The cultures were incubated at 37° C., 20% O2, 5% CO2. Medium changes were performed twice a week. Two weeks after initial seeding, primary MSC colonies were detached with a 10-minute incubation at 37° C. with TrypLE Select Enzyme (Thermo Fisher Scientific) and replated at 4000 cells/cm^2 in the same medium. MSC identity was previously assessed. Subsequent passages were performed following the same steps. Passage 4-6 MSCs were used for all experiments. […]
Lipid peroxidation was measured using confocal microscopy (Zeiss 710 LSM with an integrated META detection system). The rate of lipid peroxidation was measured using C11-BODIPY 581/591 ([…]; Molecular probes) which was excited by the 488 and 543 nm laser line and fluorescence measured using a band-pass filter from 505 to 550 nm and 560 nm long-pass filter (40× oil-objective). […]

Series [6] relates to patients diagnosed with likely PSP. The series can be described thus: Progressive Supranuclear Palsy Rating Scale (PSPRS) in treated patients. The series is classed as in vivo, human. Conditions: three PSP patients; 2.88 g BID; after 3 months of therapy; historical decline 0.91 points/month; +/-0.23 SEM. How it is done: as §1, §5, §6
The test system of series [7] is MSCs derived from patients with SROS. The series can be described thus: Mitochondrial health (morphology, number, function) of SROS MSCs. The series is classed as cell-based, human. The following applies: incubation for 72 hours. The procedure: as §2
These include changes in mitochondrial morphology, number, and function.

The test system of series [8] is SROS MSCs. The series can be described thus: Glutathione level (monochlorobimane) in SROS/PSP MSCs. Conditions: for glutathione (GSH) level, in words: SROS/PSP MSCs, MCB intensity. The series is classed as cell-based, human. The procedure:
as §2
Glutathione-related machinery is the major mechanism involved with slowing down the inhibition/propagation the LPO chain as well as mopping up the toxic end products of LPO. Consumption of the endogenous antioxidant glutathione is an indirect measure of oxidative stress.
as §10
For assessments of glutathione levels, the PSP-MSCs cultures were incubated with 50 μM monochlorobimane (MCB) (Molecular Probes, Invitrogen) for 40 minutes in HEPES buffered salt solution prior to imaging. Cells were then washed with HEPES buffered salt solution and images of the fluorescence of the MCB-GSH were acquired using a Zeiss 710 CLSM with excitation at 405 nm and emission at 435-485 nm. Mitochondrial ROS generation rate was assessed using MitoTracker® Red CM-H2XRos (Thermo Fisher Scientific) which accumulates into mitochondria upon oxidation. The fluorescence measurement was obtained by excitation with 561 nm laser and emission detected above 580 nm. Mitochondrial membrane potential (ΔΨm) was assessed using 25 nM tetramethylrhodamine methyl ester (TMRM, Thermo Fisher Scientific) at 560 nm excitation and fluorescence was measured above 580 nm. Z-stack images were collected and the fluorescence intensity of TMRM was analyzed using Zen software (Zeiss). […]
Glutathione levels were measured using MCB. […]

Series [9] relates to SROS MSCs. The series can be described thus: Mitochondrial shape in SROS MSCs. The following applies: pre-treatment. The series is classed as cell-based, human. How it is done: as §2
Presynaptic terminals typically contain multiple mitochondria. Misshaped mitochondria can clog the pathways that transport them along neurons and through long axons and elaborate dendritic arbors. Mattson et al., Neuron (2009) 60:748-766. Accordingly, mitochondrial shape is another characteristic of mitochondrial health. Also, the communication pathway between ER and mitochondria through MAM is compromised in misshaped mitochondria, further disturbing protein folding, lipid metabolism, Ca^2+ homeostasis and apoptosis. Lee et al., Mol. Cells (2018) 41:1000-1007. Coincident with the improvements in MMP with D-PUFA incubation, the abnormalities of mitochondrial shape seen in SROS MSCs were improved with D-PUFA pre-treatment, resulting in more uniformly looking mitochondria.

The test system of a further series is control MSC. The series can be described thus: Mitochondrial DNA level (PicoGreen fluorescence in non-nuclear area) in control MSCs. The series is classed as cell-based, human. Conditions: after 72 hours incubation, from 100% before. How it is done: as §2, §4

“Also recorded” adds a separate entry of the source.

In the case of `[2H]C([2H])(/C=C\C/C=C\C/C=C\CCCC(=O)O)/C=C\CCCCC` [13,13-D2-Arachadonic acid], the “% ratio of 11,11-D2-AA to AA” value in series [1] (Patient 1, evaluated at 4 months of D2-Lin treatment) came to 5.9%; in series [1] (Patient 1, evaluated at 13 months of D2-Lin treatment) it was 10.5%; in series [1] (Patient 2, at 3 months of D2-Lin treatment), 3.3%; in series [1] (Patient 2, at 12 months of D2-Lin treatment), 6.9%; in series [1] (Patient 3, at 3 months of D2-Lin treatment), 5%; in series [1] (Patient 3, at 12 months of D2-Lin treatment), 8.6%.

Regarding `[2H]C([2H])(/C=C\CCCCC)/C=C\CCCCCCCC(=O)O` [D2-Lin, 11,11-D2-Linoleic acid], the “rate of LPO, % of the pre-treatment value” with control MSCs [2] is 84.3%. Moreover, the “level of mitochondrial DNA (estimation of number of mitochondria)” value in the series on SROS-MSC was 105.4%; in the series on control MSC it was 109%. The “UPDRS slope, average increase in score” value in series [3] is reported as 0.28 points/month. Besides, the “mitochondrial membrane potential (MMP)” value in the series on SROS-MSCs is given as “reduced”; in the series with control MSCs [4] it was “no effect”. The “rate of lipid peroxidation (LPO)” value in the series with SROS MSCs [5] (SROS MSCs, % of control, from 161.8% before, N=8) turned out to be 109.8%. The “rate of lipid peroxidation (LPO), in words” value in the series on SROS MSCs [5] was “reversed; also recorded: restored the SROS MSCs to normal levels; also recorded: returned to normal levels”. The “slope of the PSPRS, mean decline” value in series [6] was 0.16 points/month. Moreover, the “mitochondrial morphology, number, and function” value in series [7] was “restores these parameters to control MSC levels”. Also, the results for the “glutathione (GSH) level, in words” value in the series on SROS MSCs [8] and in the series with SROS MSCs [8] (listed as D2-PUFAs) were “reversed; also recorded: restored to HC levels” and “significantly increased”, respectively. Further, the “abnormalities of mitochondrial shape” value with SROS MSCs [9] was “improved”.

As to `CCCCC/C=C\C/C=C\CCCCCCCC(=O)O` [H2-LA, Non-deuterated linoleic acid, reference compound], the “rate of lipid peroxidation (LPO), in words” value in the series with SROS MSCs [5] is “remained elevated at over two times that of the treated levels”. In addition, the “glutathione levels less than those found in the D2-Lin test” value with SROS MSCs [8] (PSP MSCs, after incubation, compared with D2-Lin-incubated PSP MSCs) was “about 30%”. For the same compound, the “glutathione (GSH) level, in words” value with SROS MSCs [8] is “remained low”.

Values taken from US20250177339A1, “Methods for Treating Tauopathy” (BioJiva LLC, priority 2020, published 2025).
